From PubChem BioAssay (NCI)
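Values below derive from 48-hour exposures of cells grown in 96-well plates, with endpoints linearly interpolated between the two concentrations bracketing the appropriate inhibition level. Abbreviation: GI50, concentration required for 50% inhibition of growth. TGI: concentration producing complete growth inhibition.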

Legend:
Assay in all cases: NCI-60 cell line screen, 48 h
[1] = tested on: HT29 colon
[2] = tested on: BT-549 breast
[3] = tested on: A498 renal
[4] = tested on: HCT-116 colon
[5] = tested on: KM12 colon
[6] = tested on: CAKI-1 renal
[7] = tested on: MDA-MB-435
[8] = tested on: RPMI-8226 leukemia
[9] = tested on: SK-MEL-2 melanoma
[10] = tested on: SF-539 CNS
[11] = tested on: EKVX NSCLC
[12] = tested on: NCI-H226 lung
[13] = tested on: UO-31 renal
[14] = tested on: SK-OV-3 ovarian
[15] = tested on: SN12C renal
[16] = tested on: TK-10 renal
[17] = tested on: NCI-H522 lung
[18] = tested on: OVCAR-3 ovarian
[19] = tested on: M14 melanoma
[20] = tested on: K-562 leukemia
[21] = tested on: UACC-257 melanoma
[22] = tested on: U251 CNS
[23] = tested on: RXF 393 renal
[24] = tested on: SK-MEL-28 melanoma
[25] = tested on: HOP-62 NSCLC
[26] = tested on: OVCAR-4 ovarian
[27] = tested on: SW-620 colon
[28] = tested on: HCT-15 colon
[29] = tested on: SK-MEL-5 melanoma
[30] = tested on: SNB-19 CNS
[31] = tested on: NCI/ADR-RES ovarian
[32] = tested on: HCC-2998 colon
[33] = tested on: OVCAR-5 ovarian
[34] = tested on: PC-3 prostate
[35] = tested on: A549 NSCLC
[36] = tested on: SR leukemia
[37] = tested on: SNB-75 CNS
[38] = tested on: DU-145 prostate
[39] = tested on: MDA-MB-231 breast
[40] = tested on: MOLT-4 leukemia
[41] = tested on: MALME-3M melanoma
[42] = tested on: 786-0 renal
[43] = tested on: HL-60(TB) leukemia
[44] = tested on: NCI-H460 lung
[45] = tested on: CCRF-CEM leukemia
[46] = tested on: IGROV1 ovarian
[47] = tested on: HOP-92 NSCLC
[48] = tested on: HS 578T breast
[49] = tested on: MCF7 breast
[50] = tested on: COLO 205 colon
[51] = tested on: UACC-62 melanoma
[52] = tested on: SF-295 CNS
[53] = tested on: NCI-H23 lung
[54] = tested on: T-47D breast
[55] = tested on: SF-268 CNS
[56] = tested on: LOX IMVI melanoma
[57] = tested on: ACHN renal
[58] = tested on: OVCAR-8 ovarian

**Q.** With `O=S(=O)(NC1=NCCN1C(=S)SN1CCn2c1nsc2=S)c1cccc(OC(F)(F)F)c1` as the compound, how does the GI50 [1] read?
**A.** 6.91 µM

**Q.** What about the TGI [1] of the same compound?
**A.** 26.4 µM

**Q.** What about the GI50 [2] of the same compound?
**A.** 25.7 µM

**Q.** And the TGI [2]?
**A.** > 100 µM

**Q.** And the GI50 [3]?
**A.** 22.6 µM

**Q.** What about the TGI [3] of the same compound?
**A.** 42 µM

**Q.** And the GI50 [4]?
**A.** 10.2 µM

**Q.** What about the TGI [4] of the same compound?
**A.** 21.9 µM

**Q.** What about the GI50 [5] of the same compound?
**A.** 10.3 µM

**Q.** And the TGI [5]?
**A.** 24.5 µM

**Q.** What about the GI50 [6] of the same compound?
**A.** 17.8 µM

**Q.** And the TGI [6]?
**A.** 43.5 µM

**Q.** And the GI50 [7]?
**A.** 5.86 µM

**Q.** And the TGI [7]?
**A.** 22.1 µM

**Q.** What about the GI50 [8] of the same compound?
**A.** 2060 nM

**Q.** And the TGI [8]?
**A.** 4.44 µM

**Q.** What about the GI50 [9] of the same compound?
**A.** 16 µM

**Q.** And the TGI [9]?
**A.** 41.5 µM

**Q.** And the GI50 [10]?
**A.** 19.8 µM

**Q.** What about the TGI [10] of the same compound?
**A.** 37.7 µM

**Q.** What about the GI50 [11] of the same compound?
**A.** 44 µM

**Q.** And the TGI [11]?
**A.** > 100 µM

**Q.** What about the GI50 [12] of the same compound?
**A.** 16.2 µM

**Q.** And the TGI [12]?
**A.** 31.7 µM

**Q.** And the GI50 [13]?
**A.** 14.1 µM

**Q.** And the TGI [13]?
**A.** 28.1 µM

**Q.** And the GI50 [14]?
**A.** 23.5 µM

**Q.** What about the TGI [14] of the same compound?
**A.** 46.5 µM

**Q.** And the GI50 [15]?
**A.** 11.3 µM

**Q.** And the TGI [15]?
**A.** 26.7 µM

**Q.** And the GI50 [16]?
**A.** 13.8 µM

**Q.** What about the TGI [16] of the same compound?
**A.** 29.7 µM

**Q.** And the GI50 [17]?
**A.** 6.85 µM

**Q.** And the TGI [17]?
**A.** 28.3 µM

**Q.** And the GI50 [18]?
**A.** 5.07 µM

**Q.** And the TGI [18]?
**A.** 16.4 µM

**Q.** And the GI50 [19]?
**A.** 13 µM

**Q.** And the TGI [19]?
**A.** 28.1 µM

**Q.** And the GI50 [20]?
**A.** 4.47 µM

**Q.** And the TGI [20]?
**A.** > 100 µM

**Q.** What about the GI50 [21] of the same compound?
**A.** 17.3 µM

**Q.** What about the TGI [21] of the same compound?
**A.** 38.1 µM

**Q.** And the GI50 [22]?
**A.** 17.2 µM

**Q.** And the TGI [22]?
**A.** 30.9 µM

**Q.** What about the GI50 [23] of the same compound?
**A.** 2420 nM

**Q.** What about the TGI [23] of the same compound?
**A.** 6 µM

**Q.** What about the GI50 [24] of the same compound?
**A.** 15.9 µM

**Q.** And the TGI [24]?
**A.** 32.6 µM

**Q.** And the GI50 [25]?
**A.** 8 µM

**Q.** And the TGI [25]?
**A.** 20.3 µM

**Q.** And the GI50 [26]?
**A.** 12.5 µM

**Q.** And the TGI [26]?
**A.** 27.9 µM

**Q.** What about the GI50 [27] of the same compound?
**A.** 6.7 µM

**Q.** And the TGI [27]?
**A.** > 100 µM

**Q.** And the GI50 [28]?
**A.** 10.5 µM

**Q.** What about the TGI [28] of the same compound?
**A.** 22.4 µM

**Q.** What about the GI50 [29] of the same compound?
**A.** 16.6 µM

**Q.** What about the TGI [29] of the same compound?
**A.** 32.8 µM

**Q.** And the GI50 [30]?
**A.** 18 µM

**Q.** What about the TGI [30] of the same compound?
**A.** 45.4 µM

**Q.** What about the GI50 [31] of the same compound?
**A.** 12 µM

**Q.** What about the TGI [31] of the same compound?
**A.** 44.8 µM

**Q.** What about the GI50 [32] of the same compound?
**A.** 5.16 µM

**Q.** And the TGI [32]?
**A.** 16.1 µM

**Q.** And the GI50 [33]?
**A.** 16.4 µM

**Q.** And the TGI [33]?
**A.** 30 µM

**Q.** And the GI50 [34]?
**A.** 9.94 µM

**Q.** What about the TGI [34] of the same compound?
**A.** 26.4 µM

**Q.** And the GI50 [35]?
**A.** 17.4 µM

**Q.** What about the TGI [35] of the same compound?
**A.** 44.8 µM

**Q.** And the GI50 [36]?
**A.** 2770 nM

**Q.** And the TGI [36]?
**A.** > 100 µM

**Q.** What about the GI50 [37] of the same compound?
**A.** 16.2 µM

**Q.** And the TGI [37]?
**A.** 38.9 µM

**Q.** And the GI50 [38]?
**A.** 14.1 µM

**Q.** And the TGI [38]?
**A.** 29.6 µM

**Q.** What about the GI50 [39] of the same compound?
**A.** 14.1 µM

**Q.** What about the TGI [39] of the same compound?
**A.** 35.4 µM

**Q.** What about the GI50 [40] of the same compound?
**A.** 2710 nM

**Q.** What about the TGI [40] of the same compound?
**A.** 10.8 µM

**Q.** What about the GI50 [41] of the same compound?
**A.** 6.75 µM

**Q.** What about the TGI [41] of the same compound?
**A.** 23.3 µM

**Q.** What about the GI50 [42] of the same compound?
**A.** 12 µM

**Q.** What about the TGI [42] of the same compound?
**A.** 27.1 µM

**Q.** What about the GI50 [43] of the same compound?
**A.** > 100 µM

**Q.** And the TGI [43]?
**A.** > 100 µM

**Q.** And the GI50 [44]?
**A.** 13.4 µM

**Q.** And the TGI [44]?
**A.** 41.4 µM

**Q.** And the GI50 [45]?
**A.** 2160 nM

**Q.** What about the TGI [45] of the same compound?
**A.** 4.22 µM

**Q.** What about the GI50 [46] of the same compound?
**A.** 9.86 µM

**Q.** And the TGI [46]?
**A.** 46.6 µM

**Q.** What about the GI50 [47] of the same compound?
**A.** 4.45 µM

**Q.** What about the TGI [47] of the same compound?
**A.** 20.4 µM

**Q.** And the GI50 [48]?
**A.** 35.9 µM

**Q.** What about the TGI [48] of the same compound?
**A.** > 100 µM

**Q.** What about the GI50 [49] of the same compound?
**A.** 4.17 µM

**Q.** What about the TGI [49] of the same compound?
**A.** 17.2 µM

**Q.** What about the GI50 [50] of the same compound?
**A.** 13.3 µM

**Q.** What about the TGI [50] of the same compound?
**A.** > 100 µM

**Q.** And the GI50 [51]?
**A.** 9.68 µM

**Q.** And the TGI [51]?
**A.** 21.6 µM

**Q.** And the GI50 [52]?
**A.** 23.6 µM

**Q.** And the TGI [52]?
**A.** 63.3 µM

**Q.** What about the GI50 [53] of the same compound?
**A.** 12.8 µM

**Q.** And the TGI [53]?
**A.** 32.1 µM

**Q.** What about the GI50 [54] of the same compound?
**A.** 12.3 µM

**Q.** And the TGI [54]?
**A.** 39.4 µM

**Q.** What about the GI50 [55] of the same compound?
**A.** 11.2 µM

**Q.** What about the TGI [55] of the same compound?
**A.** 34.4 µM

**Q.** What about the GI50 [56] of the same compound?
**A.** 3.71 µM

**Q.** What about the TGI [56] of the same compound?
**A.** 12.4 µM

**Q.** What about the GI50 [57] of the same compound?
**A.** 13.5 µM

**Q.** What about the TGI [57] of the same compound?
**A.** 26.3 µM

**Q.** What about the GI50 [58] of the same compound?
**A.** 11 µM

**Q.** And the TGI [58]?
**A.** 65.1 µM
